Measurements reported in patent publication US20160002248A1, “GLS1 INHIBITORS FOR TREATING DISEASE” (Board of Regents, The University of Texas System, priority 2014, published 2016).

Tests used:
A549 cells = test: Proliferation Assay (A549 cell viability, Cell Titer Fluor); type: cell-based; settings: Homo sapiens, 72 hours
Summary of the method: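 A549 cells in RPMI 1640 with 10% dialyzed FBS were seeded at 1000 cells/well, grown 24 h, then exposed to compound (0.5% DMSO final) for 72 h at 37 °C, 5% CO2. Viability was read by Cell Titer Fluor fluorescence; EC50 from four-parameter logistic fit.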

[1] = target: T1, purified recombinant human GAC (GLS1) (Homo sapiens, UniProt O94925); test: GLS1 Enzymatic Activity Assay (dual-coupled enzymatic assay); type: biochemical
T1 sequence (O94925 55-598 isoform O94925-3 limits assumed): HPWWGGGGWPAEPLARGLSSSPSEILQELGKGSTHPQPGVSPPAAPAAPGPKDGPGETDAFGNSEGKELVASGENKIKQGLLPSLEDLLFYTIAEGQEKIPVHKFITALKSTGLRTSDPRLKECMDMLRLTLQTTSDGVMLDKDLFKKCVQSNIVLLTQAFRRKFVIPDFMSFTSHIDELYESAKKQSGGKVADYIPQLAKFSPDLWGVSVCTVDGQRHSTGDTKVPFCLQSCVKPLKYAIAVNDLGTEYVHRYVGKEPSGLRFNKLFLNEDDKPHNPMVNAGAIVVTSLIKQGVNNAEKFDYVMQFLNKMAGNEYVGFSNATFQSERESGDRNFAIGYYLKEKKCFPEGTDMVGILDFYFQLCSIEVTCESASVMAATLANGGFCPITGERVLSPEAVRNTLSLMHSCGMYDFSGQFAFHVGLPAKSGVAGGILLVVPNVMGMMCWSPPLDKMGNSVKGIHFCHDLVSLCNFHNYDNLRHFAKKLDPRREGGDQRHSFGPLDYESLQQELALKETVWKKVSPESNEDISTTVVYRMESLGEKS
Summary of the method: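 Recombinant human GAC (2 nM) preincubated with 50 mM potassium phosphate, then inhibitor (10 min each, RT); 1 mM glutamine, pH 7.4 Hepes buffer, 1% DMSO. Glutamate coupled via glutamate oxidase/HRP to resorufin (Ex 530/Em 590), kinetic or 20-min endpoint; IC50 by four-parameter logistic fit.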

Structure (SMILES)	EC50 (A549 cells) [nM]	IC50 [1] [nM]
O=C(NCc1cc(OC(F)(F)F)ccc1F)c1cn(CCCCc2cc3cc(C4CN(C(=O)CC(F)(F)F)C4)[nH]c3nn2)nn1 [Example 141, N-{[2-fluoro-5-(trifluoromethoxy)phenyl]methyl}-1-(4-{6-[1-(3,3,3-trifluoropropanoyl)azetidin-3-yl]-7H-pyrrolo[2,3-c]pyridazin-3-yl}butyl)-1H-1,2,3-triazole-4-carboxamide]	100 to 500	< 100
O=C(NCc1cccc(OC(F)(F)F)c1)c1cn(CCCCc2cc3c(-c4ccccn4)c(C4CC4)[nH]c3nn2)nn1 [Example 143, 1-{4-[6-cyclopropyl-5-(pyridin-2-yl)-7H-pyrrolo[2,3-c]pyridazin-3-yl]butyl}-N-{[3-(trifluoromethoxy)phenyl]methyl}-1H-1,2,3-triazole-4-carboxamide]	< 100	< 100
O=C(NCc1cc(OC(F)(F)F)ccc1F)c1cn(CCCCc2cc3c(-c4ccccn4)c(C4CC4)[nH]c3nn2)nn1 [Example 144, 1-{4-[6-cyclopropyl-5-(pyridin-2-yl)-7H-pyrolo[2,3-c]pyridazin-3-yl]butyl}-N-{[2-fluoro-5-(trifluoromethoxy)phenyl]methyl}-1H-1,2,3-triazole-4-carboxamide]	< 100	< 100
O=C(NCc1ccccn1)c1cn(CCCCc2cc3c(-c4ccc5c(c4)OCO5)c(C4CC4)[nH]c3nn2)nn1 [Example 145, 1-{4-[5-(2H-1,3-benzodioxol-5-yl)-6-cyclopropyl-7H-pyrrolo[2,3-c]pyridazin-3-yl]butyl}-N-(pyridin-2-ylmethyl)-1H-1,2,3-triazole-4-carboxamide]	100 to 500	< 100
Cc1ccc(CNC(=O)c2cn(CCCCc3cc4c(-c5ccc6c(c5)OCO6)c(C5CC5)[nH]c4nn3)nn2)cn1 [Example 146, 1-{4-[5-(2H-1,3-benzodioxol-5-yl)-6-cyclopropyl-7H-pyrrolo[2,3-c]pyridazin-3-yl]butyl}-N-[(6-methylpyridin-3-yl)methyl]-1H-1,2,3-triazole-4-carboxamide]	< 100	< 100
Cc1ccc(CNC(=O)c2cn(CCCCc3cc4c(-c5ccc(F)cc5F)c(C5CC5)[nH]c4nn3)nn2)cn1 [Example 147, 1-{4-[6-cyclopropyl-5-(2,4-difluorophenyl)-7H-pyrrolo[2,3-c]pyridazin-3-yl]butyl}-N-[(6-methylpyridin-3-yl)methyl]-1H-1,2,3-triazole-4-carboxamide]	< 100	< 100
O=C(NCc1cc(OC(F)(F)F)ccc1F)c1cn(CCCCc2cc3cc(C4CN(C(=O)OCC(F)(F)F)C4)[nH]c3nn2)nn1 [Example 148, 2,2,2-trifluoroethyl 3-(3-{4-[4-({[2-fluoro-5-(trifluoromethoxy)phenyl]methyl}carbamoyl)-1H-1,2,3-triazol-1-yl]butyl}-7H-pyrrolo[2,3-c]pyridazin-6-yl)azetidine-1-carboxylate]	< 100	< 100
O=C(NCc1ccccn1)c1cn(CCCCc2cc3cc(-c4cccc(OC(F)(F)F)c4)[nH]c3nn2)nn1 [Example 149, N-(pyridin-2-ylmethyl)-1-(4-{6-[3-(trifluoromethoxy)phenyl]-7H-pyrrolo[2,3-c]pyridazin-3-yl}butyl)-1H-1,2,3-triazole-4-carboxamide]	500 to 5000	< 100
CC(C)(C)OC(=O)N1CCC(c2cc3cc(CCCCn4cc(C(=O)NCc5cc(OC(F)(F)F)ccc5F)nn4)nnc3[nH]2)CC1 [Example 150, tert-butyl 4-(3-{4-[4-({[2-fluoro-5-(trifluoromethoxy)phenyl]methyl}carbamoyl)-1H-1,2,3-triazol-1-yl]butyl}-7H-pyrrolo[2,3-c]pyridazin-6-yl)piperidine-1-carboxylate]	< 100	< 100
O=C(NCc1ccccn1)c1cn(CCCCc2cc3c(-c4ccc(F)cc4F)c(C4CC4)[nH]c3nn2)nn1 [Example 151]	100 to 500	< 100
CC(=O)Nc1cccc(-c2c(C3CC3)[nH]c3nnc(CCCCn4cc(C(=O)NCc5ccc(C(C)(C)O)nc5)nn4)cc23)c1 [Example 152, 1-{4-[6-cyclopropyl-5-(3-acetamidophenyl)-7H-pyrrolo[2,3-c]pyridazin-3-yl]butyl}-N-{[6-(2-hydroxypropan-2-yl)pyridin-3-yl]methyl}-1H-1,2,3-triazole-4-carboxamide]	500 to 5000	< 100
CC(=O)Nc1cccc(-c2c(C3CC3)[nH]c3nnc(CCCCn4cc(C(=O)NCc5ccccn5)nn4)cc23)c1 [Example 153]	500 to 5000	< 100
CC(=O)Nc1cccc(-c2c(C3CC3)[nH]c3nnc(CCCCn4cc(C(=O)NCc5ccc(C)nc5)nn4)cc23)c1 [Example 154, 1-{4-[6-cyclopropyl-5-(3-acetamidophenyl)-7H-pyrrolo[2,3-c]pyridazin-3-yl]butyl}-N-[(6-methylpyridin-3-yl)methyl]-1H-1,2,3-triazole-4-carboxamide]	500 to 5000	< 100
O=C(NCc1cc(OC(F)(F)F)ccc1F)c1cn(CCCCc2cc3cc(C4CCNCC4)[nH]c3nn2)nn1 [Example 155, N-{[2-fluoro-5-(trifluoromethoxy)phenyl]methyl)-1-{4-[6-(piperidin-4-yl)-7H-pyrrolo[2,3-c]pyridazin-3-yl]butyl)-1H-1,2,3-triazole-4-carboxamide]	500 to 5000	100 to 500
CC(=O)N1CCC(c2cc3cc(CCCCn4cc(C(=O)NCc5cc(OC(F)(F)F)ccc5F)nn4)nnc3[nH]2)CC1 [Example 156, 1-{4-[6-(1-acetylpiperidin-4-yl)-7H-pyrrolo[2,3-c]pyridazin-3-yl]butyl}-N-{[2-fluoro-5-(trifluoromethoxy)phenyl]methyl}-1H-1,2,3-triazole-4-carboxamide]	100 to 500	< 100
O=C(NCc1cc(OC(F)(F)F)ccc1F)c1cn(CCCCc2cc3cc(C4CCN(C(=O)CC(F)(F)F)CC4)[nH]c3nn2)nn1 [Example 157, N-{[2-fluoro-5-(trifluoromethoxy)phenyl]methyl)-1-(4-{6-[1-(3,3,3-trifluoropropanoyl)piperidin-4-yl]-7H-pyrrolo[2,3-c]pyridazin-3-yl}butyl)-1H-1,2,3-triazole-4-carboxamide]	100 to 500	< 100
CNC(=O)c1cccc(-c2c(C3CC3)[nH]c3nnc(CCCCn4cc(C(=O)NCc5ccc(C)nc5)nn4)cc23)c1 [Example 158, 1-(4-{6-cyclopropyl-5-[3-(methylcarbamoyl)phenyl]-7H-pyrrolo[2,3-c]pyridazin-3-yl}butyl)-N-[(6-methylpyridin-3-yl)methyl]-1H-1,2,3-triazole-4-carboxamide]	500 to 5000	< 100
Cc1ccc(CNC(=O)c2cn(CCCCc3cc4c(-c5cccc(CNS(C)(=O)=O)c5)c(C5CC5)[nH]c4nn3)nn2)cn1 [Example 159, 1-(4-{6-cyclopropyl-5-[3-(methanesulfonamidomethyl)phenyl]-7H-pyrrolo[2,3-c]pyridazin-3-yl}butyl)-N-[(6-methylpyridin-3-yl)methyl]-1H-1,2,3-triazole-4-carboxamide]	500 to 5000	< 100
Cc1ccc(CNC(=O)c2cn(CCCCc3cc4c(-c5cccc(C(C)(C)O)c5)c(C5CC5)[nH]c4nn3)nn2)cn1 [Example 160, 1-(4-{6-cyclopropyl-5-[3-(2-hydroxypropan-2-yl)phenyl]-7H-pyrrolo[2,3-c]pyridazin-3-yl}butyl)-N-[(6-mcthylpyridin-3-yl)methyl]-1H-1,2,3-triazole-4-carboxamide]	100 to 500	< 100
CC(C)(O)c1ccc(CNC(=O)c2cn(CCCCc3cc4c(-c5ccc(F)cc5F)c(C5CC5)[nH]c4nn3)nn2)cn1 [Example 161, 1-{4-[6-cyclopropyl-5-(2,4-difluorophenyl)-7H-pyrrolo[2,3-c]pyridazin-3-yl]butyl}-N-{[6-(2-hydroxypropan-2-yl)pyridin-3-yl]methyl}-1H-1,2,3-triazole-4-carboxamide]	100 to 500	< 100
CC(C)(O)c1ccc(CNC(=O)c2cn(CCCCc3cc4c(-c5ccc(C(F)(F)F)cc5)c(C5CC5)[nH]c4nn3)nn2)cn1 [Example 162, 1-(4-{6-cyclopropyl-5-[4-(trifluoromethyl)phenyl]-7H-pyrrolo[2,3-c]pyridazin-3-yl}butyl)-N-{[6-(2-hydroxypropan-2-yl)pyridin-3-yl]methyl}-1H-1,2,3-triazole-4-carboxamide]	100 to 500	< 100
Cc1ccc(CNC(=O)c2cn(CCCCc3cc4c(-c5ccc(C(F)(F)F)cc5)c(C5CC5)[nH]c4nn3)nn2)cn1 [Example 163, 1-(4-{6-cyclopropyl-5-[4-(trifluoromethyl)phenyl]-7H-pyrrolo[2,3-c]pyridazin-3-yl}butyl)-N-[(6-methylpyridin-3-yl)methyl]-1H-1,2,3-triazole-4-carboxamide]	100 to 500	< 100
